Source: patent US8183239B2, “Substituted piperazines and piperidines as modulators of the neuropeptide Y2 receptor” (Janssen Pharmaceutica NV, priority 2005, dated 2012)

The molecules below were run against T1, Y2 receptors (Homo sapiens, UniProt P49146) (assay: Radioligand binding assay ([125I]PYY, KAN-Ts cell membranes)). Details: Table 1, [125I]PYY 80 pM, average of results, read-out: IC50.
T1 construct: endogenous in cells; host or cells: KAN-Ts cells (membranes)
T1 sequence (P49146 1-381): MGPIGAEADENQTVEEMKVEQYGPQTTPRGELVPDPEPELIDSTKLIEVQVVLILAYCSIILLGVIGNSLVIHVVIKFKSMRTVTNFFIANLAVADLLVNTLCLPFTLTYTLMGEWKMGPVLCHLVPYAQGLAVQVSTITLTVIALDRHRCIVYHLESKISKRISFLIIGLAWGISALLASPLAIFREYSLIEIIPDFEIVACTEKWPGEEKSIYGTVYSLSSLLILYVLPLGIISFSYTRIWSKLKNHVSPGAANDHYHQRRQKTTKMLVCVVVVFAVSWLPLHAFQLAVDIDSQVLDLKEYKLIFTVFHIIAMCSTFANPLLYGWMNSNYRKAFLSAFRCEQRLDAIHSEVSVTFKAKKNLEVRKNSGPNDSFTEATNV
Description: Radioligand Binding Assay
KAN-Ts endogenously expressing Y2 receptors were used for the radioligand binding assay. Cells were grown to confluence on 150 cm^2 tissue culture plates, washed with phosphate-buffered saline (PBS), and scraped into 50 mL tubes. After centrifugation, the supernatant was aspirated, and the pellets frozen and stored at −80° C. Thawed pellets were homogenized with a polytron tissue grinder for 15 sec in 20 mM Tris-HCl, 5 mM EDTA. The homogenate was centrifuged at 800×g for 5 min and the collected supernatant was recentrifuged at 25000×g for 25 min. The resulting pellet was resuspended in binding buffer (20 mM HEPES, 120 mM NaCl, 0.22 mM KH2PO4, 1.3 mM CaCl2, 0.8 mM MgSO4). Membranes were incubated with [^125I]PYY (80 pM) in the presence or absence of test compound for 1 h at rt. The reaction was stopped by filtration through GF/C filter plates pre-soaked in 0.3% polyethylenimine and subsequently washed with Tris 50 mM, 5 mM EDTA buffer. Plates were dried for 1 h in a 55° C. oven, scintillation fluid was added and the radioactivity was counted in a Packard TopCount. Specific binding to the NPY receptor subtypes was determined by radioactivity that was bound in the presence of […]. Each binding experiment was repeated three to eight times, each in duplicate. IC50 values (i.e. concentration of unlabelled peptide or antagonist required to compete for 50% of specific binding to the radioligand) were calculated using the GraphPad Prism software (GraphPad Software Inc., San Diego Calif.) with a fit to a sigmoidal dose response curve. Data for compounds tested are presented in Tables 1 and 2 as an average of results obtained.
`CCC(CC)C(=O)Nc1ccc(N2CCN(C(C(=O)N3CCCC3)c3ccccc3)CC2)c(F)c1` (stereo not shown) [Example 1, 2-Ethyl-N-{3-fluoro-4-[4-(2-oxo-1-phenyl-2-pyrrolidin-1-yl-ethyl)-piperazin-1-yl]-phenyl}-butyramide] showed an IC50 of 58 nM.
`CCC(CC)C(=O)Nc1ccc(N2CCN(Cc3ccccc3C(=O)OC)CC2)c(F)c1` [Example 2, 2-{4-[4-(2-Ethyl-butyrylamino)-2-fluoro-phenyl]-piperazin-1-ylmethyl}-benzoic acid methyl ester] was tested, and the IC50 was 2350 nM.
With `CCC(CC)C(=O)Nc1ccc(N2CCN(Cc3cccc(C(=O)N4CCOCC4)c3)CC2)c(F)c1` [Example 3, 2-Ethyl-N-(3-fluoro-4-{4-[3-(morpholine-4-carbonyl)-benzyl]-piperazin-1-yl}-phenyl)-butyramide] the IC50 was 560 nM.
In the case of `CCC(CC)C(=O)Nc1ccc(N2CCN(Cc3ccccc3C(=O)N(CC)CC)CC2)c(F)c1` [Example 4, N,N-Diethyl-2-{4-[4-(2-ethyl-butyrylamino)-2-fluoro-phenyl]-piperazin-1-ylmethyl}-benzamide], the IC50 is reported as 370 nM.
`CCC(CC)C(=O)Nc1ccc(N2CCN(Cc3ccccc3C(=O)N3CCOCC3)CC2)c(F)c1` [Example 5, 2-Ethyl-N-(3-fluoro-4-{4-[2-(morpholine-4-carbonyl)-benzyl]-piperazin-1-yl}-phenyl)-butyramide] gave an IC50 of 1900 nM.
For `CCC(CC)C(=O)Nc1ccc(N2CCN(C(C(=O)N(CC)CC)c3ccccc3)CC2)c(F)c1` (stereo not shown) [Example 6, N-{4-[4-(Diethylcarbamoyl-phenyl-methyl)-piperazin-1-yl]-3-fluoro-phenyl}-2-ethyl-butyramide], the IC50 was 71 nM.
In the case of `CCNC(=O)C(c1ccccc1)N1CCN(c2ccc(NC(=O)C(CC)CC)cc2F)CC1` (stereo not shown) [Example 7, 2-Ethyl-N-{4-[4-(ethylcarbamoyl-phenyl-methyl)-piperazin-1-yl]-3-fluoro-phenyl}-butyramide], the IC50 is reported as 377 nM.
`CCN(CC)C(=O)C(c1ccccc1)C1CCN(c2ccc(NC(=O)Nc3c(C)noc3C)cc2F)CC1` (stereo not shown) [Example 8, 2-(1-{4-[3-(3,5-Dimethyl-isoxazol-4-yl)-ureido]-2-fluoro-phenyl}-piperidin-4-yl)-N,N-diethyl-2-phenyl-acetamide] showed an IC50 of 10 nM.
Work on `CCN(CC)C(=O)C(c1ccccc1)C1CCN(c2ccc(NC(=O)Cc3c(C)noc3C)cc2F)CC1` (stereo not shown) [Example 9, 2-(1-{4-[2-(3,5-Dimethyl-isoxazol-4-yl)-acetylamino]-2-fluoro-phenyl}-piperidin-4-yl)-N,N-diethyl-2-phenyl-acetamide] yielded an IC50 of 14 nM.
Work on `CCC(CC)C(=O)Nc1ccc(N2CCC(C(C(=O)N(CC)CC)c3ccccc3)CC2)c(F)c1` (stereo not shown) [Example 11, N-{4-[4-(Diethylcarbamoyl-phenyl-methyl)-piperidin-1-yl]-3-fluoro-phenyl}-2-ethyl-butyramide] yielded an IC50 of 12 nM.
Molecule `CCN(CC)C(=O)C(c1ccccc1)C1CCN(c2ccc(NC(=O)c3c(C)noc3C)cc2F)CC1` (stereo not shown) [Example 12, 3,5-Dimethyl-isoxazole-4-carboxylic acid {4-[4-(diethylcarbamoyl-phenyl-methyl)-piperidin-1-yl]-3-fluoro-phenyl}-amide] has an IC50 of 26 nM.
With `CCNC(=O)C(c1ccccc1)C1CCN(c2ccc(NC(=O)Cc3c(C)noc3C)cc2F)CC1` (stereo not shown) [Example 13, 2-(1-{4-[2-(3,5-Dimethyl-isoxazol-4-yl)-acetylamino]-2-fluoro-phenyl}-piperidin-4-yl)-N-ethyl-2-phenyl-acetamide] the IC50 was 58 nM.
Work on `CCNC(=O)C(c1ccccc1)C1CCN(c2ccc(NC(=O)C(CC)CC)cc2F)CC1` (stereo not shown) [Example 14, 2-Ethyl-N-{4-[4-(ethylcarbamoyl-phenyl-methyl)-piperidin-1-yl]-3-fluoro-phenyl}-butyramide] yielded an IC50 of 112 nM.
Work on `CCNC(=O)C(c1ccccc1)C1CCN(c2ccc(NC(=O)Nc3c(C)cccc3C)cc2F)CC1` (stereo not shown) [Example 15, 2-(1-{4-[3-(2,6-Dimethyl-phenyl)-ureido]-2-fluoro-phenyl}-piperidin-4-yl)-N-ethyl-2-phenyl-acetamide] yielded an IC50 of 162 nM.
`CCCC(CCC)C(=O)Nc1ccc(N2CCC(C(C(=O)NCC)c3ccccc3)CC2)c(F)c1` (stereo not shown) [Example 16, 2-Propyl-pentanoic acid {4-[4-(ethylcarbamoyl-phenyl-methyl)-piperidin-1-yl]-3-fluoro-phenyl}-amide] gave an IC50 of 280 nM.
Work on `CCNC(=O)C(c1ccccc1)C1CCN(c2ccc(NC(=O)NCc3ccc(F)cc3)cc2F)CC1` (stereo not shown) [Example 17, N-Ethyl-2-(1-{2-fluoro-4-[3-(4-fluoro-benzyl)-ureido]-phenyl}-piperidin-4-yl)-2-phenyl-acetamide] yielded an IC50 of 1000 nM.
Work on `CCNC(=O)C(c1ccccc1)C1CCN(c2ccc(NC(=O)C(C)C)cc2)CC1` (stereo not shown) [Example 18, N-{4-[4-(Ethylcarbamoyl-phenyl-methyl)-piperidin-1-yl]-phenyl}-isobutyramide] yielded an IC50 of 4000 nM.
Molecule `CCNC(=O)C(c1ccccc1)C1CCN(c2ccc(NC(=O)CC3CCCCC3)cc2F)CC1` (stereo not shown) [Example 19, 2-{1-[4-(2-Cyclohexyl-acetylamino)-2-fluoro-phenyl]-piperidin-4-yl}-N-ethyl-2-phenyl-acetamide] has an IC50 of 10000 nM.
In the case of `CCN(CC)C(=O)C(c1ccccc1)N1CCN(c2ccc(NC(=O)Nc3c(C)noc3C)cc2F)CC1` (stereo not shown) [Example 20, 2-(4-{4-[3-(3,5-Dimethyl-isoxazol-4-yl)-ureido]-2-fluoro-phenyl}-piperazin-1-yl)-N,N-diethyl-2-phenyl-acetamide], the IC50 is reported as 16 nM.
In the case of `CCN(CC)C(=O)C(c1ccccc1)N1CCN(c2ccc(NC(=O)Cc3c(C)noc3C)cc2F)CC1` (stereo not shown) [Example 21, 2-(4-{4-[2-(3,5-Dimethyl-isoxazol-4-yl)-acetylamino]-2-fluoro-phenyl}-piperazin-1-yl)-N,N-diethyl-2-phenyl-acetamide], the IC50 is reported as 20 nM.
With `CCN(CC)C(=O)C(c1ccccc1)N1CCN(c2ccc(NC(=O)c3c(C)noc3C)cc2F)CC1` (stereo not shown) [Example 22, 3,5-Dimethyl-isoxazole-4-carboxylic acid {4-[4-(diethylcarbamoyl-phenyl-methyl)-piperazin-1-yl]-3-fluoro-phenyl}-amide] the IC50 was 26 nM.
Work on `CCNC(=O)C(c1ccccc1)N1CCN(c2ccc(NC(=O)Nc3c(C)noc3C)cc2F)CC1` (stereo not shown) [Example 23, 2-(4-{4-[3-(3,5-Dimethyl-isoxazol-4-yl)-ureido]-2-fluoro-phenyl}-piperazin-1-yl)-N-ethyl-2-phenyl-acetamide] yielded an IC50 of 42 nM.
Molecule `CCNC(=O)C(c1ccccc1)N1CCN(c2ccc(NC(=O)Cc3c(C)noc3C)cc2F)CC1` (stereo not shown) [Example 24, 2-(4-{4-[2-(3,5-Dimethyl-isoxazol-4-yl)-acetylamino]-2-fluoro-phenyl}-piperazin-1-yl)-N-ethyl-2-phenyl-acetamide] has an IC50 of 176 nM.
`CCNC(=O)C(c1ccccc1)N1CCN(c2ccc(NC(=O)Nc3cc(C)ccc3C)cc2F)CC1` (stereo not shown) [Example 25, 2-(4-{4-[3-(2,5-Dimethyl-phenyl)-ureido]-2-fluoro-phenyl}-piperazin-1-yl)-N-ethyl-2-phenyl-acetamide] gave an IC50 of 260 nM.
In the case of `CCNC(=O)C(c1ccccc1)N1CCN(c2ccc(NC(=O)NCc3ccc(F)cc3)cc2F)CC1` (stereo not shown) [Example 26, N-Ethyl-2-(4-{2-fluoro-4-[3-(4-fluoro-benzyl)-ureido]-phenyl}-piperazin-1-yl)-2-phenyl-acetamide], the IC50 is reported as 2000 nM.

Same assay, conditions: Table 2, [125I]PYY 80 pM, average of results, read-out: IC50
`CCC(CC)C(=O)Nc1ccc(N2CCN(C(C(=O)OC)c3ccccc3)C(C(=O)OC)C2)c(F)c1` (single isomer, unassigned; diastereomer 1) [Example 269, 4-[4-(2-Ethyl-butyrylamino)-2-fluoro-phenyl]-1-(methoxycarbonyl-phenyl-methyl)-piperazine-2-carboxylic acid methyl ester (diastereomer 1)] was tested, and the IC50 was 2300 nM.
For `CCC(CC)C(=O)Nc1ccc(N2CCN(C(C(=O)OC)c3ccccc3)C(C(=O)OC)C2)c(F)c1` (single isomer, unassigned; diastereomer 2) [Example 265, 4-[4-(2-Ethyl-butyrylamino)-2-fluoro-phenyl]-1-(methoxycarbonyl-phenyl-methyl)-piperazine-2-carboxylic acid methyl ester (diastereomer 2)], the IC50 was 600 nM.
In the case of `CC[C@H](C)C(=O)Nc1ccc(N2CCC(C(C(=O)N(CC)CC)c3ccccc3)CC2)c(C#N)c1` (stereo in doubt) [Example 218, N-{3-Cyano-4-[4-(diethylcarbamoyl-phenyl-methyl)-piperidin-1-yl]-phenyl}-2-methyl-butyramide], the IC50 is reported as 30 nM.
